Test results as given in patent publication US6379959B1, “Metalocarboxypeptidase inhibitors and derived molecules used as antitumor agents” (Universitat Autonoma de Barcelona, priority 1996, dated 2002).
Positions of bridges follow the written chain, without caps; N, C: chain ends. No end group written: not given here.

Assays:
[1] = test system: human pancreatic adenocarcinoma cell line MDAPanc-3; test: Proliferation test by recount of the cells number (hemocytometer), MDAPanc-3; type: cell-based
Procedure: In this assay and with the aim of determining whether the presence in the culture medium produces some effect on the growth in vitro of the cell lines, the final number of the cells when the control reaches monolayer is determined, in the presence and in the absence of the inhibitor. The calculation is made by direct recount of the number of cells using trypsinization and subsequent recount in a hemocytometer. The detailed method is as follows:
1. In each of the three culture flasks of 25 cm^2, 5×10^5 cells are seed and a total volume of the culture medium is added (DMEM with a 10% of fetal bovine serum or synthetic serum, according to the test) of 5 mL:
A first flask is used as control and no PCI is added to it.
PCI is added to a second flask some hours after the culture has started and once the cells have adhered to the bottom of the flask. This type of test is defined as postadherence test.
PCI is added to a third flask at the same time as the culture has begun, before the cells have had time to adhere to the bottom of the flask, thus constituting the preadherence test.
2. The cells are maintained in an incubator at 37° C., 87% of relative humidity and 10% of CO2. The medium contained in the flasks is changed every 3-4 days. Medium free of PCI is added to the control flask; medium with PCI is added to the other two.
3. When the culture of one of the flasks reaches a state of monolayer (or after a specific number of days), we proceed to count the number of cells in each one of them. Firstly and in order to do that, the cells are trypsinized using the following steps:
Immediately after, the recount of the number of cells is done. To do that, an aliquot of 10 μL is taken and it is placed in an eppendorf tube. 10 μL of a solution of trypan blue dye is added. Then, it is well mixed and two aliquots of 10 μL of the mixture are taken and placed in the two zones of an hemocytometer which is placed in the inverted microscope.
The live cells are observed as being refringent and clear, while the dead ones are observed as opaque and dyed blue, for the staining is only able to penetrate dead cells. The total number of cells of the W zone of the hemocytometer is counted, differentiating between the live and the dead ones. Based on this recount, the total number of cells that was in the initial suspension (which will be the total number of cells that was in the culture) is calculated by multiplying the number obtained by 2×10^4. The viability (in %) is calculated by dividing the number of live cells by the total number of counted cells and multiplying it by 100.
The effect produced by the presence of PCI in the medium is expressed as % of cell growth inhibition, which is calculated according to the formula [formula] […]

[2] = test system: human pancreatic adenocarcinoma cell line Panc-1; test: Proliferation test with tetrazolium salts, Panc-1 in medium with serum, 10 days; type: cell-based
Procedure: It was performed the same kind of test which had been carried out for the Capan-1 cell line but with Panc-1, another human pancreatic adenocarcinoma cell line. We are referring to a human pancreatic adenocarcinoma ATCC nr. CRL 1469, established by Lieber, M. et al. (1975) In. J. Cancer, 15: 741-747. Of ductal origin, it is not highly differentiated.
As for the Capan-1 cell line, two types of experiments were carried out with and without bovine fetal serum. The protocol followed for the test, growing in RPMI plus bovine fetal serum, was the same as that used with Capan-1 cell line but with small variations, given the difference in the duplication times between the two lines. The tests were carried out with the native PCI (wtPCI) and with the mutant PCI (PCIdelYVG). The protocol is detailed as follows:
1. In a culture plate with 96 wells, 2,000 cells were seed in 30 wells for the tests with wtPCI and in 36 for the tests with PCIdelYVG. From these 30 or 36:
In 6 wells (control), 200 μL of full medium (RPMI+10%FBS) without wtPCI or PCIdelYVG/mL were added. […]
2. The cells were kept in an incubator at 37° C., 87% of relative humidity and 10% of CO2. The old medium was sucked out with a Pasteur pipette. Medium free of wtPCI or PCIdelYVG was added to the control wells and to the others a medium was added with identical concentration of wtPCI or PCIdelYVG.
3. After 10 days, the cell growth was evaluated per well, according to the method detailed in the protocol of Section 4.B.2.a.

[3] = test system: Capan-1 cell line; test: Proliferation of Capan-1 cells pretreated with PCI; type: cell-based, human; settings: pretreatment 50 μg/mL of PCI, 28-34 days; treatment 5-18 days
Procedure: In the case of the Capan-1 cell line, two different tests and which are described as follows were carried out:
1. 5,000 cells were seed in 2 wells of a plate of 12 wells. One of the wells was grown with medium (non-pretreated cells), and the other with medium with 50 μg/mL of PCI (pretreated cells). The cells were kept in such conditions for the period of time that is indicated in the results section as time of pretreatment.
2. Twice a week, the medium of the wells was replaced by fresh medium with or without PCI, and each time that in any of the wells confluence was reached, the cells were trypsinized and 1/10 of them was placed again in the original well, the other cells being discarded or frozen.
3. Once the desired time of pretreatment elapsed, the cells were trypsinized and counted, being employed to start proliferation tests such as those described in Section 4.B.2.1. The number of cells that was placed per well in the proliferation plate (of 96 wells) was 2,000, 7 replicas being put for each treatment. The cells underwent treatment with or without various PCI concentrations.
4. Once the treatment time elapsed, the number of cells per well was estimated as previously described in Section 4.B.2.a.

“PCI: potato carboxypeptidase inhibitor, isoform IIa, obtained by recombinant DNA techniques in E. coli (SEQ ID NO.2) (EQHADPICNKPCKTHDDCSGAWFCQACWNSARTCGPYVG; disulfide 12-27, 18-34, 8-24)” was tested, and the “Percentage of Growth Inhibition” value ([1]; 5 mg PCI/mL, Postadhesion) was 19.1 ± 14.5%, the “Percentage of Growth Inhibition” value ([1]; 5 mg PCI/mL, Preadhesion, DMEM+10%BMS until controls confluent) was 20.7 ± 6.9% and the “Percentage of Growth Inhibition” value ([1]; 10 mg PCI/mL, Postadhesion) was 14.3 ± 12.4%. For the same substance, the “Percentage of Growth Inhibition” value ([1]; 10 mg PCI/mL, Preadhesion) was 14.6 ± 14.2%, the “Growth (Percentage in relation to the average of the controls)” value ([2]; 0.1 mg/mL wtPCI, RPMI+10%FBS) was 90.85% and the “Growth (Percentage in relation to the average of the controls)” value ([2]; 1 mg/mL wtPCI) was 84.55%. The “Growth (Percentage in relation to the average of the controls)” value ([2]; 10 mg/mL wtPCI) was 82.22%, the “Growth (Percentage in relation to the average of the controls)” value ([2]; 50 mg/mL wtPCI) was 71.14% and the level of inhibition ([2]; concentration of 0.1 μg/mL) was 9.15%. The level of inhibition ([2]; concentration of 50 μg/mL) was 28.86% and the “final number of cells, pretreated cells cultivated afterwards in absence of PCI vs non-pretreated cells” value [3] was “approximately half”.
